Earlier results as cited in publication PMC5957517 (Biochimica et biophysica acta, 2018).

Tested on: MRSA infections
Conditions: ref [43],[44]

CN[C@H](CC(C)C)C(=O)N[C@H]1C(=O)N[C@@H](CC(N)=O)C(=O)N[C@H]2C(=O)N[C@H]3C(=O)N[C@H](C(=O)N[C@H](C(=O)O)c4cc(O)cc(O)c4-c4cc3ccc4O)[C@H](O)c3ccc(c(Cl)c3)Oc3cc2cc(c3O[C@@H]2O[C@H](CO)[C@@H](O)[C@H](O)[C@H]2O[C@H]2C[C@](C)(N)[C@H](O)[C@H](C)O2)Oc2ccc(cc2Cl)[C@H]1O [vancomycin]
reported clinical efficacy: 35-57%
